≈ marks a conversion by molar mass, not a printed value.
What was measured:
Staphylococcus aureus [1] = assay: Antibacterial activity against Staphylococcus aureus at 100 ug/ml after 18 hrs by disk diffusion method; type: functional; conditions: read-out: IZ
Streptococcus pyogenes [2] = assay: Antibacterial activity against Streptococcus pyogenes at 100 ug/ml after 18 hrs by disk diffusion method; type: functional; conditions: read-out: IZ
[3] = test system: Salmonella enterica subsp. enterica; assay: Antibacterial activity against Salmonella Typhimurium at 100 ug/ml after 18 hrs by disk diffusion method; type: functional, Salmonella enterica subsp. enterica serovar Typhimurium; conditions: read-out: IZ
Escherichia coli [4] = assay: Antibacterial activity against Escherichia coli at 100 ug/ml after 18 hrs by disk diffusion method; type: functional; conditions: read-out: IZ
Staphylococcus aureus [5] = assay: Antibacterial activity against Staphylococcus aureus after 18 hrs by macro dilution test; type: functional
Streptococcus pyogenes [6] = assay: Antibacterial activity against Streptococcus pyogenes after 18 hrs by macro dilution test; type: functional
[7] = test system: Salmonella enterica subsp. enterica; assay: Antibacterial activity against Salmonella Typhimurium after 18 hrs by macro dilution test; type: functional, Salmonella enterica subsp. enterica serovar Typhimurium
Escherichia coli [8] = assay: Antibacterial activity against Escherichia coli after 18 hrs by macro dilution test; type: functional
Staphylococcus aureus [9] = assay: Antibacterial activity against Staphylococcus aureus at 30 ug/disk after 18 hrs by disk diffusion method; type: functional; conditions: read-out: IZ
Streptococcus pyogenes [10] = assay: Antibacterial activity against Streptococcus pyogenes at 30 ug/disk after 18 hrs by disk diffusion method; type: functional; conditions: read-out: IZ
[11] = test system: Salmonella enterica subsp. enterica; assay: Antibacterial activity against Salmonella Typhimurium at 30 ug/disk after 18 hrs by disk diffusion method; type: functional, Salmonella enterica subsp. enterica serovar Typhimurium; conditions: read-out: IZ
Escherichia coli [12] = assay: Antibacterial activity against Escherichia coli at 30 ug/disk after 18 hrs by disk diffusion method; type: functional; conditions: read-out: IZ

MIC (Staphylococcus aureus [5])	MIC (Streptococcus pyogenes [6])	MIC [7]	MIC (Escherichia coli [8])	SMILES	zone of inhibition at 100 µg/mL (Staphylococcus aureus [1])	zone of inhibition at 100 µg/mL (Streptococcus pyogenes [2])	zone of inhibition at 100 µg/mL [3]	zone of inhibition at 100 µg/mL (Escherichia coli [4])	zone of inhibition at 30 µg/disc (Staphylococcus aureus [9])	zone of inhibition at 30 µg/disc (Streptococcus pyogenes [10])	zone of inhibition at 30 µg/disc [11]	zone of inhibition at 30 µg/disc (Escherichia coli [12])
–	–	–	–	CC(C)CCC[C@@H](C)[C@H]1CC[C@H]2[C@@H]3C/C(=N/NC(=S)NC4CCCC4)[C@H]4CCCC[C@]4(C)[C@H]3CC[C@]12C	9.4 mm	10.2 mm	10.4 mm	12.3 mm	–	–	–	–
–	–	–	–	CC(C)CCC[C@@H](C)[C@H]1CC[C@H]2[C@@H]3C/C(=N/NC(=S)NC4CCCC4)[C@H]4C[C@@H](Cl)CC[C@]4(C)[C@H]3CC[C@]12C	11.5 mm	10.2 mm	11.2 mm	11.7 mm	–	–	–	–
–	–	–	–	CC(=O)O[C@H]1CC[C@@]2(C)[C@H](C1)/C(=N\NC(=S)NC1CCCC1)C[C@@H]1[C@@H]2CC[C@]2(C)[C@@H]([C@H](C)CCCC(C)C)CC[C@@H]12	12.6 mm	11.4 mm	10.4 mm	13.3 mm	–	–	–	–
128 µg/mL (≈ 225 µM)	128 µg/mL (≈ 225 µM)	128 µg/mL (≈ 225 µM)	128 µg/mL (≈ 225 µM)	CC(C)CCC[C@@H](C)[C@H]1CC[C@H]2[C@@H]3C/C(=N/N=C4\SCC(=O)N4C4CCCC4)[C@H]4CCCC[C@]4(C)[C@H]3CC[C@]12C	14.5 mm	15.2 mm	13.6 mm	14.2 mm	–	–	–	–
32 µg/mL (≈ 53.1 µM)	32 µg/mL (≈ 53.1 µM)	64 µg/mL (≈ 106 µM)	64 µg/mL (≈ 106 µM)	CC(C)CCC[C@@H](C)[C@H]1CC[C@H]2[C@@H]3C/C(=N/N=C4\SCC(=O)N4C4CCCC4)[C@H]4C[C@@H](Cl)CC[C@]4(C)[C@H]3CC[C@]12C	20.4 mm	21.4 mm	19.4 mm	22.5 mm	–	–	–	–
64 µg/mL (≈ 102 µM)	32 µg/mL (≈ 51.1 µM)	64 µg/mL (≈ 102 µM)	32 µg/mL (≈ 51.1 µM)	CC(=O)O[C@H]1CC[C@@]2(C)[C@H](C1)/C(=N\N=C1/SCC(=O)N1C1CCCC1)C[C@@H]1[C@@H]2CC[C@]2(C)[C@@H]([C@H](C)CCCC(C)C)CC[C@@H]12	18.5 mm	21.4 mm	19.6 mm	22.8 mm	–	–	–	–

SMILES	MIC (Staphylococcus aureus [5])	MIC (Streptococcus pyogenes [6])	MIC [7]	MIC (Escherichia coli [8])	zone of inhibition at 100 µg/mL (Staphylococcus aureus [1])	zone of inhibition at 100 µg/mL (Streptococcus pyogenes [2])	zone of inhibition at 100 µg/mL [3]	zone of inhibition at 100 µg/mL (Escherichia coli [4])	zone of inhibition at 30 µg/disc (Staphylococcus aureus [9])	zone of inhibition at 30 µg/disc (Streptococcus pyogenes [10])	zone of inhibition at 30 µg/disc [11]	zone of inhibition at 30 µg/disc (Escherichia coli [12])
CC1(C)S[C@@H]2[C@H](NC(=O)[C@H](N)c3ccc(O)cc3)C(=O)N2[C@H]1C(=O)O [AMOXICILLIN]	32 µg/mL (≈ 87.6 µM)	32 µg/mL (≈ 87.6 µM)	32 µg/mL (≈ 87.6 µM)	32 µg/mL (≈ 87.6 µM)	–	–	–	–	17 mm	18.2 mm	17.2 mm	20.2 mm

— ChEMBL document CHEMBL1158386, “Synthesis and biological evaluation of some thiazolidinone derivatives of steroid as antibacterial agents” (2009)
